These are literature values, as cited in US5990112A, “Inhibitors of metalloproteases pharmaceutical compositions comprising same and methods of their use” (Affymax Technologies N.V., priority 1996, dated 1999).

The IC50 is the concentration that gives 50% inhibition.

Series [1] deals with human rheumatoid synovial collagenase.
For series [2], the target named is rabbit bone proteoglycanase. Conditions: Delaisse et al. 1985.

With `CNC(=O)[C@H](Cc1ccc(OC)cc1)NC(=O)[C@H](CC(C)C)NC(CCNC(=O)OCc1ccccc1)C(=O)O` (stereo partly drawn) [N-[3-(benzyloxy-carbonyl)amino-1-carboxy-n-propyl]-L-leucyl-O-methyl-L-tyrosine, N-methylamide], the results for the IC50 in series [1] and in series [2] were below 8000 nM and 500 nM, respectively.
